Experimental data published in patent US20030181436A1, “Treatment for AIDS, HIV, and other related diseases and compounds for use therewith” (priority 2001, published 2003).

Assays:
Format in all cases: cell-based
ACH-2 cells = experiment: ACH-2 assay, compound toxicity by MTS dye reduction; set-up: Y. CC / 9′. CC: unit not given here; details: exp 2
Description: At assay termination the assay plates were stained with the soluble tetrazolium-based dye MTS (CellTiter® Reagent, Promega) to determined cell viability and quantify compound toxicity. […] At termination of the assay 20 μL of MTS reagent was added per well. The wells were incubated for 4 h at 37° C., 5% CO2. Adhesive plate scalers were used in place of the lids, the sealed plate was inverted several times to mix the soluble formazan product and the plate was read spectrophotometrically at 490 nm with a 650 nm reference wavelength on a Molecular Devices Vmax plate reader.
(§1) U1 and ACH-2 cells were obtained from the AIDS Research and Reference Reagent Program and maintained under standard culture conditions in RPMI 1640 supplemented with 10% fetal bovine serum (heat inactivated), supplemented with 2 mM […], 100U/ml penicillin and 100 μg/ml, streptomycin. U1 cells were derived from the histocytic leukemia cell line U937, and contain a single integrated copy (HIV IIIB) […] a cytokine and/or phorbol inducible provirus. ACH-2 cells are derived from the A3.01 T lymphoblastic cell line, and contain 2 copies of the HIV IIIB provirus, however only one is cytokine and/or phorbol inducible. Cultures were maintained in such a way as to ensure exponential growth of the populations. At the time of the assay, cells were collected by centrifugation and counted by hemacytometer. If cell viability by Trypan Blue dye exclusion was less than 70% the assay was terminated. The cells were adjusted to 5×10^4 cells/mL and 100 μL, placed in 96 well plates with 100 μL media containing a final concentration of […] TNFα and the test compound. Cultures were incubated for 3 days and supernatants harvested. Compound toxicity was determined by MTS dye reduction. Virus expression was measured by supernatant reverse transcriptasc activity.

[1] = system: TNFα induced U1 cells (HIV IIIB provirus); experiment: U1 latent infection assay, supernatant reverse transcriptase activity; details: exp 2
Description: as §1
(§2) Reverse transcriptase activity was measured in cell-free supernatants. Tritiated thymidine triphosphate (NEN) (TTP) was resuspended in distilled H2O at 5 Ci/mL. Poly rA and oligo dT were prepared as a stock solution which was kept at −20° C. The RT reaction buffer was prepared fresh on a daily basis and consists of 125 μL 1.0 M EGTA, 125 μL dH2O, 110 μL 10% SDS, 50 μL 1.0 M Tris (pH 7.4), 50 μL, 1.0 M DTT, and 40 μL 1.0 M MgCl2. These three solutions were mixed together in a ratio of 2 parts TTP, 1 part poly rA:oligo dT, and 1 part reaction buffer. Ten microliters of this reaction mixture was placed in a round bottom microtiter plate and 15 μL of virus containing supernatant was added and mixed. The plate was incubated at 37° C. in a water bath with a solid support to prevent submersion of the plate and incubated for 60 minutes. Following reaction, the reaction volume was spotted onto pieces of DE81 paper, washed 5 times for 5 minutes each in a 5% sodium phosphate buffer, 2 times for 1 minute each in distilled water, 2 times for 1 minute each in 70% ethanol, and then dried. Opti-Fluor O was added to each sample and incorporated radioactivity was quantitated utilizing a Wallac 1450 Microbetaplus liquid scintillation counter.

[2] = system: HIV RoJo (a clinical isolate); experiment: Chronically infected PBMCs, supernatant reverse transcriptase activity
Description: as §2
In these studies PBMCs are infected with HIV RoJo (a clinical isolate) and a dynamic population of infected PBMCs established over a period of 2 to 3 weeks. This population of infected PBMCs was established and maintained by the addition of fresh PBMCs in a 1:1 ratio every 7 days, thus overcoming the lost of PBMCs to normal cell death processes. Thus a population of cells was established that consisted of uninfected cells, short lived infected cells and long lived infected cells. In experiments where AZT was added to prevent re-infection of the population, we typically saw a 50% reduction in infection following a 7 day treatment. This means that 50% of the virus production from the infected […] population was due re-infection. […] Thus there was a population of infected PBMCs present ([…] of the total) which survived for extended periods of time and thus met the definition of being chronically infected.

In the case of Potassium Iodiscorbate [Compound K], the “TOXICITY VALUES (MTS) MEAN” value (ACH-2 cells; 0.00063 uM) is reported as 0.990 O. D, the “Y. CC” value (ACH-2 cells; 0.00063 uM) is reported as 78.2 and the “TOXICITY VALUES (MTS) MEAN” value (ACH-2 cells; 0.002 uM) is reported as 1.004 O. D. For the same substance, the “Y. CC” value (ACH-2 cells; 0.002 uM) was 79.3, the “TOXICITY VALUES (MTS) MEAN” value (ACH-2 cells; 0.00625 uM) was 1.000 O. D and the “Y. CC” value (ACH-2 cells; 0.00625 uM) was 78.9. The “TOXICITY VALUES (MTS) MEAN” value (ACH-2 cells; 0.02 uM) was 0.943 O. D, the “Y. CC” value (ACH-2 cells; 0.02 uM) was 74.4 and the “TOXICITY VALUES (MTS) MEAN” value (ACH-2 cells; 0.0625 uM) was 0.891 O. D. The “Y. CC” value (ACH-2 cells; 0.0625 uM) was 70.3, the “TOXICITY VALUES (MTS) MEAN” value (ACH-2 cells; 0.2 uM) was 0.830 O. D and the “Y. CC” value (ACH-2 cells; 0.2 uM) was 65.6. For the same substance, the “TOXICITY VALUES (MTS) MEAN” value (ACH-2 cells; 0.625 uM) was 0.826 O. D, the “Y. CC” value (ACH-2 cells; 0.625 uM) was 65.2 and the “TOXICITY VALUES (MTS) MEAN” value (ACH-2 cells; 2 uM) was 0.694 O. D. For the same substance, the “Y. CC” value (ACH-2 cells; 2 uM) was 54.8, the “TOXICITY VALUES (MTS) MEAN” value (ACH-2 cells; 6.25 uM) was 0.208 O. D and the “Y. CC” value (ACH-2 cells; 6.25 uM) was 16.4. For the same substance, the “TOXICITY VALUES (MTS) MEAN” value (ACH-2 cells; 20 uM) was 0.040 O. D, the “Y. CC” value (ACH-2 cells; 20 uM) was 3.2 and the “TOXICITY VALUES (MTS) MEAN” value (ACH-2 cells; 62.5 uM) was 0.020 O. D. The “Y. CC” value (ACH-2 cells; 62.5 uM) was 1.6, the “TOXICITY VALUES (MTS) MEAN” value (ACH-2 cells; 200 uM) was 0.028 O. D and the “Y. CC” value (ACH-2 cells; 200 uM) was 2.2. For the same substance, the “% VC” value ([1]; 0.00063 μM) was 112.6%, the “RT ACTIVITY (cpm) MEAN” value ([1]; 0.00063 μM) was 3019 cpm and the “% VC” value ([1]; 0.002 μM) was 118.4%. For the same substance, the “RT ACTIVITY (cpm) MEAN” value ([1]; 0.002 μM) was 3174 cpm, the “% VC” value ([1]; 0.00625 μM) was 111.5% and the “RT ACTIVITY (cpm) MEAN” value ([1]; 0.00625 μM) was 2989 cpm. The “% VC” value ([1]; 0.02 μM) was 98.4%, the “RT ACTIVITY (cpm) MEAN” value ([1]; 0.02 μM) was 2640 cpm and the “% VC” value ([1]; 0.0625 μM) was 107.1%. The “RT ACTIVITY (cpm) MEAN” value ([1]; 0.0625 μM) was 2872 cpm, the “% VC” value ([1]; 0.2 μM) was 110.0% and the “RT ACTIVITY (cpm) MEAN” value ([1]; 0.2 μM) was 2949 cpm. The “% VC” value ([1]; 0.625 μM) was 68.1%, the “RT ACTIVITY (cpm) MEAN” value ([1]; 0.625 μM) was 1826 cpm and the “% VC” value ([1]; 2 μM) was 81.7%. For the same substance, the “RT ACTIVITY (cpm) MEAN” value ([1]; 2 μM) was 2191 cpm, the “% VC” value ([1]; 6.25 μM) was 73.2% and the “RT ACTIVITY (cpm) MEAN” value ([1]; 6.25 μM) was 1962 cpm. The “% VC” value ([1]; 20 μM) was 45.3%, the “RT ACTIVITY (cpm) MEAN” value ([1]; 20 μM) was 1216 cpm and the “% VC” value ([1]; 62.5 μM) was 29.07%. For the same substance, the “RT ACTIVITY (cpm) MEAN” value ([1]; 62.5 μM) was 779 cpm, the “% VC” value ([1]; 200 μM) was 17.50% and the “RT ACTIVITY (cpm) MEAN” value ([1]; 200 μM) was 469 cpm. The “Percent Control by Supernatant Reverse Transcriptase activity” value (“Percent Control” for short) ([2]; Day 7, 1 μg/ml) was 94 Percent Control, the “Percent Control” value ([2]; Day 7, 5 μg/ml) was 87 Percent Control and the “Percent Control” value ([2]; Day 7, 10 μg/ml) was 92 Percent Control. For the same substance, the “Percent Control” value ([2]; Day 7, 25 μg/ml) was 84 Percent Control, the “Percent Control” value ([2]; Day 7, 50 μg/ml) was 70 Percent Control and the “Percent Control” value ([2]; Day 7, 100 μg/ml) was 34 Percent Control. The “Percent Control” value ([2]; Day 14, 1 μg/ml) was 94 Percent Control, the “Percent Control” value ([2]; Day 14, 5 μg/ml) was 57 Percent Control and the “Percent Control” value ([2]; Day 14, 10 μg/ml) was 66 Percent Control. For the same substance, the “Percent Control” value ([2]; Day 14, 25 μg/ml) was 65 Percent Control, the “Percent Control” value ([2]; Day 14, 50 μg/ml) was 56 Percent Control and the “Percent Control” value ([2]; Day 14, 100 μg/ml) was 75 Percent Control. The “Percent Control” value ([2]; da 21, 1 μg/ml) was 90 Percent Control, the “Percent Control” value ([2]; da 21, 5 μg/ml) was 77 Percent Control and the “Percent Control” value ([2]; da 21, 10 μg/ml) was 74 Percent Control. For the same substance, the “Percent Control” value ([2]; da 21, 25 μg/ml) was 63 Percent Control, the “Percent Control” value ([2]; da 21, 50 μg/ml) was 46 Percent Control and the “Percent Control” value ([2]; da 21, 100 μg/ml) was 50 Percent Control. The “IC50 in chronically infected PBMCs” value ([2]; day 7) was 68 µg/mL.
